Source: PMC8877233, “The Hydrophobicity and Antifungal Potentiation of Burkholdine Analogues” (Molecules, 2022)
Values after ≈ are worked out from the molar mass of the structure shown. Starred links: 1 amine or outer side, 2 acyl side, 3 side chain; linkers in the order of their positions; H or OH if unused. Positions of bridges follow the written chain, without caps; N, C: chain ends. Non-standard residues stand in square brackets, D forms with d. Residues, ends and D or L forms follow the SMILES beside them. *: point of attachment. X12 = CCCCCCCCCCC(=O)N[C@H](C(=O)NC[C@H](CC(=O)[*:1])N[*:2])[C@@H](C)O; X11 = CCCCCCCCNC(=O)[C@H](O)[C@@H](O)C(=O)NC[C@H](CC(=O)[*:1])N[*:2]; X10 = CCCCCCCCCCCC(=O)N[C@@H](CO)C(=O)NC[C@@H](CC(=O)[*:1])N[*:2]; X13 = CCCCCCCCCCC(=O)N[C@@H](CO)C(=O)NC[C@H](CC(=O)[*:1])N[*:2]; X5 = CCCCCCCCCCCC(=O)N[C@@H](CO)C(=O)NC[C@H](CC(=O)[*:1])N[*:2]; X6 = CCCCCCCCCCC(=O)N[C@@H](CO)C(=O)NC[C@@H](CC(=O)[*:1])N[*:2]; X7 = CCCCCCCCCCCC(=O)N[C@H](CO)C(=O)NC[C@@H](CC(=O)[*:1])N[*:2]; X1 = CCCCCCCCCCC(=O)N[C@H](CO)C(=O)NC[C@@H](CC(=O)[*:1])N[*:2]; X4 = CCCCCCCCCCCC(=O)N[C@H](CO)C(=O)NC[C@H](CC(=O)[*:1])N[*:2]; X8 = CCCCCCCCCCC(=O)N[C@H](CO)C(=O)NC[C@H](CC(=O)[*:1])N[*:2]; X9 = CCCCCCCCNC(=O)[C@H](O)[C@@H](O)C(=O)*; Undecanoyl = CCCCCCCCCCC(=O)*; Lauroyl = CCCCCCCCCCCC(=O)*; Orn = NCCC[C@H](N)C(=O)O

What was measured:
[1] = RP-HPLC retention time as measure of hydrophilicity/hydrophobicity; format: physicochemical; settings: chromatographic, Cosmosil 5C18-AR-II 4.6 x 150 mm, linear gradient 30–70% MeCN/H2O (0.1% TFA) for 30 min, 1 mL/min, UV 220 nm
Description: […] In all cases, the retention times of the (S)-Dab-containing peptides were shorter than those of the (R)-Dab-containing peptides, which were similar to those bearing L-Orn. The retention times of the cyclic peptides were shorter for Tat > D-Ser > L-Thr > L-Ser, while peptides bearing the undecanoic acid moiety eluted […] than those bearing the decanoic acid by about 2 min.

[2] = tested on: S. cerevisiae (ATCC204504); format: cell-based; settings: ATCC204504, 24 h
Description: Bacto yeast extract (0.63 g, 70161, Fluka, Barcelona, Spain), peptone (1.00 g, 26421, Mikuni, Japan), and glucose (1.00 g, 16806-25, Nacalai tesque, Japan) were added to H2O (50 mL) at room temperature and the mixture was heated to 60 °C. After 30 min, the mixture was sterilized by heating in an autoclave at 121 °C for 20 min.
DMSO (8 µL, 13406-55, Nacalai tesque, Japan) was added to YPD medium (750 µL). The test fungus culture solution (3 µL) was added to this solution (1.5 mL).
The inhibitor (each 1.0 mg; 3a–h, 4a–b, 5a–b, 6a–b, 7, 8) was dissolved in DMSO (40 µL).
The prepared test bacteria (50 µL) were placed in A1–A12 of a 96-well plate. Bk analogue (50 µL) was added to A1, pipetting was performed, and then 50 µL was extracted from A1 and placed in A2. This operation was repeated until A11, and 50 µL extracted from A11 was discarded. The well plate was closed and incubated at 30 °C. After 24 h, the MIC values were evaluated.

Structure (SMILES)	tR [1] [min]	MIC [2] [µg/mL]
CCCCCCCCCCC(=O)N[C@@H](CO)C(=O)NC[C@@H]1CC(=O)N[C@H](CO)C(=O)N[C@H](Cc2ccc(O)cc2)C(=O)N[C@H](CC(N)=O)C(=O)NCC(=O)N[C@@H](CC(N)=O)C(=O)N[C@@H](CO)C(=O)N[C@@H](CC(N)=O)C(=O)N1 [Compound 3a, Cyclo-[Undecanoic Acid-Ser-(S)-7-D-Ser-D-Tyr-D-Asn-Gly-Asn-Ser-Asn]] ([dS][dY][dN]GNSN; linker N-C via X13)	9.3	>200
CCCCCCCCCCCC(=O)N[C@@H](CO)C(=O)NC[C@@H]1CC(=O)N[C@H](CO)C(=O)N[C@H](Cc2ccc(O)cc2)C(=O)N[C@H](CC(N)=O)C(=O)NCC(=O)N[C@@H](CC(N)=O)C(=O)N[C@@H](CO)C(=O)N[C@@H](CC(N)=O)C(=O)N1 [Compound 3b, Cyclo-[Dodecanoic Acid-Ser-(S)-7-D-Ser-D-Tyr-D-Asn-Gly-Asn-Ser-Asn]] ([dS][dY][dN]GNSN; linker N-C via X5)	11.7	100 (≈ 90.4 µM)
CCCCCCCCCCC(=O)N[C@H](CO)C(=O)NC[C@@H]1CC(=O)N[C@H](CO)C(=O)N[C@H](Cc2ccc(O)cc2)C(=O)N[C@H](CC(N)=O)C(=O)NCC(=O)N[C@@H](CC(N)=O)C(=O)N[C@@H](CO)C(=O)N[C@@H](CC(N)=O)C(=O)N1 [Compound 3c, Cyclo-[Undecanoic Acid-D-Ser-(S)-7-D-Ser-D-Tyr-D-Asn-Gly-Asn-Ser-Asn]] ([dS][dY][dN]GNSN; linker N-C via X8)	9.4	>200
CCCCCCCCCCCC(=O)N[C@H](CO)C(=O)NC[C@@H]1CC(=O)N[C@H](CO)C(=O)N[C@H](Cc2ccc(O)cc2)C(=O)N[C@H](CC(N)=O)C(=O)NCC(=O)N[C@@H](CC(N)=O)C(=O)N[C@@H](CO)C(=O)N[C@@H](CC(N)=O)C(=O)N1 [Compound 3d, Cyclo-[Dodecanoic Acid-D-Ser-(S)-7-D-Ser-D-Tyr-D-Asn-Gly-Asn-Ser-Asn]] ([dS][dY][dN]GNSN; linker N-C via X4)	11.8	>200
CCCCCCCCCCC(=O)N[C@@H](CO)C(=O)NC[C@H]1CC(=O)N[C@H](CO)C(=O)N[C@H](Cc2ccc(O)cc2)C(=O)N[C@H](CC(N)=O)C(=O)NCC(=O)N[C@@H](CC(N)=O)C(=O)N[C@@H](CO)C(=O)N[C@@H](CC(N)=O)C(=O)N1 [Compound 3e, Cyclo-[Undecanoic Acid-Ser-(R)-7-D-Ser-D-Tyr-D-Asn-Gly-Asn-Ser-Asn]] ([dS][dY][dN]GNSN; linker N-C via X6)	9.4	>200
CCCCCCCCCCCC(=O)N[C@@H](CO)C(=O)NC[C@H]1CC(=O)N[C@H](CO)C(=O)N[C@H](Cc2ccc(O)cc2)C(=O)N[C@H](CC(N)=O)C(=O)NCC(=O)N[C@@H](CC(N)=O)C(=O)N[C@@H](CO)C(=O)N[C@@H](CC(N)=O)C(=O)N1 [Compound 3f, Cyclo-[Dodecanoic Acid-Ser-(R)-7-D-Ser-D-Tyr-D-Asn-Gly-Asn-Ser-Asn]] ([dS][dY][dN]GNSN; linker N-C via X10)	11.8	200 (≈ 181 µM)
CCCCCCCCCCC(=O)N[C@H](CO)C(=O)NC[C@H]1CC(=O)N[C@H](CO)C(=O)N[C@H](Cc2ccc(O)cc2)C(=O)N[C@H](CC(N)=O)C(=O)NCC(=O)N[C@@H](CC(N)=O)C(=O)N[C@@H](CO)C(=O)N[C@@H](CC(N)=O)C(=O)N1 [Compound 3g, Cyclo-[Undecanoic Acid-D-Ser-(R)-7-D-Ser-D-Tyr-D-Asn-Gly-Asn-Ser-Asn]] ([dS][dY][dN]GNSN; linker N-C via X1)	9.6	>200
CCCCCCCCCCCC(=O)N[C@H](CO)C(=O)NC[C@H]1CC(=O)N[C@H](CO)C(=O)N[C@H](Cc2ccc(O)cc2)C(=O)N[C@H](CC(N)=O)C(=O)NCC(=O)N[C@@H](CC(N)=O)C(=O)N[C@@H](CO)C(=O)N[C@@H](CC(N)=O)C(=O)N1 [Compound 3h, Cyclo-[Dodecanoic Acid-D-Ser-(R)-7-D-Ser-D-Tyr-D-Asn-Gly-Asn-Ser-Asn]] ([dS][dY][dN]GNSN; linker N-C via X7)	11.8	>200
CCCCCCCCCCC(=O)N[C@H](C(=O)N[C@H]1CCCNC(=O)[C@H](CC(N)=O)NC(=O)[C@H](CO)NC(=O)[C@H](CC(N)=O)NC(=O)CNC(=O)[C@@H](CC(N)=O)NC(=O)[C@@H](Cc2ccc(O)cc2)NC(=O)[C@@H](CO)NC1=O)[C@@H](C)O [Compound 7, Cyclo-[Undecanoic Acid-Thr-Orn-D-Ser-D-Tyr-D-Asn-Gly-Asn-Ser-Asn]] (Undecanoyl-T[Orn][dS][dY][dN]GNSN; lactam 2-C)	10.6	>200
CCCCCCCCNC(=O)[C@H](O)[C@@H](O)C(=O)N[C@H]1CCCNC(=O)[C@H](CC(N)=O)NC(=O)[C@H](CO)NC(=O)[C@H](CC(N)=O)NC(=O)CNC(=O)[C@@H](CC(N)=O)NC(=O)[C@@H](Cc2ccc(O)cc2)NC(=O)[C@@H](CO)NC1=O [Compound 8, Cyclo-[(2R,3R)-2,3-Dihydroxy-4-(octylamino)-4-oxobutanoic Acid-Orn-D-Ser-D-Tyr-D-Asn-Gly-Asn-Ser-Asn]] (X9-[Orn][dS][dY][dN]GNSN; lactam 1-C)	5.8	>200

The remaining lines, values ahead:

tR [1] [min]	MIC [2] [µg/mL]	Structure (SMILES)
10.4	>200	CCCCCCCCCCC(=O)N[C@H](C(=O)NC[C@@H]1CC(=O)N[C@H](CO)C(=O)N[C@H](Cc2ccc(O)cc2)C(=O)N[C@H](CC(N)=O)C(=O)NCC(=O)N[C@@H](CC(N)=O)C(=O)N[C@@H](CO)C(=O)N[C@@H](CC(N)=O)C(=O)N1)[C@@H](C)O [Compound 4a, Cyclo-[Undecanoic Acid-Thr-(S)-7-D-Ser-D-Tyr-D-Asn-Gly-Asn-Ser-Asn]] ([dS][dY][dN]GNSN; linker N-C via X12)
5.3	>200	CCCCCCCCNC(=O)[C@H](O)[C@@H](O)C(=O)NC[C@@H]1CC(=O)N[C@H](CO)C(=O)N[C@H](Cc2ccc(O)cc2)C(=O)N[C@H](CC(N)=O)C(=O)NCC(=O)N[C@@H](CC(N)=O)C(=O)N[C@@H](CO)C(=O)N[C@@H](CC(N)=O)C(=O)N1 [Compound 5a, Cyclo-[(2R,3R)-2,3-dihydroxy-4-(octylamino)-4-oxobutanoic Acid-(S)-7-D-Ser-D-Tyr-D-Asn-Gly-Asn-Ser-Asn]] ([dS][dY][dN]GNSN; linker N-C via X11)
9.7	>200	CCCCCCCCCCC(=O)N[C@@H](CO)C(=O)N[C@H]1CCCNC(=O)[C@H](CC(N)=O)NC(=O)[C@H](CO)NC(=O)[C@H](CC(N)=O)NC(=O)CNC(=O)[C@@H](CC(N)=O)NC(=O)[C@@H](Cc2ccc(O)cc2)NC(=O)[C@@H](CO)NC1=O [Compound 6a, Cyclo-[Undecanoic Acid-Ser-Orn-D-Ser-D-Tyr-D-Asn-Gly-Asn-Ser-Asn]] (Undecanoyl-S[Orn][dS][dY][dN]GNSN; lactam 2-C)
12.1	>200	CCCCCCCCCCCC(=O)N[C@@H](CO)C(=O)N[C@H]1CCCNC(=O)[C@H](CC(N)=O)NC(=O)[C@H](CO)NC(=O)[C@H](CC(N)=O)NC(=O)CNC(=O)[C@@H](CC(N)=O)NC(=O)[C@@H](Cc2ccc(O)cc2)NC(=O)[C@@H](CO)NC1=O [Compound 6b, Cyclo-[Dodecanoic Acid-Ser-Orn-D-Ser-D-Tyr-D-Asn-Gly-Asn-Ser-Asn]] (Lauroyl-S[Orn][dS][dY][dN]GNSN; lactam 2-C)
	>200	CCCCCCCCCCC(=O)N[C@H](CO)C(=O)N[C@H]1CCCNC(=O)[C@H](CC(N)=O)NC(=O)[C@H](CO)NC(=O)[C@H](CC(N)=O)NC(=O)CNC(=O)[C@@H](CC(N)=O)NC(=O)[C@@H](Cc2ccc(O)cc2)NC(=O)[C@@H](CO)NC1=O [Compound 6c, Cyclo-[Undecanoic Acid-D-Ser-Orn-D-Ser-D-Tyr-D-Asn-Gly-Asn-Ser-Asn]] (Undecanoyl-[dS][Orn][dS][dY][dN]GNSN; lactam 2-C)
11.2	>200	CCCCCCCCCCCC(=O)N[C@H](CO)C(=O)N[C@H]1CCCNC(=O)[C@H](CC(N)=O)NC(=O)[C@H](CO)NC(=O)[C@H](CC(N)=O)NC(=O)CNC(=O)[C@@H](CC(N)=O)NC(=O)[C@@H](Cc2ccc(O)cc2)NC(=O)[C@@H](CO)NC1=O [Compound 6d, Cyclo-[Dodecanoic Acid-D-Ser-Orn-D-Ser-D-Tyr-D-Asn-Gly-Asn-Ser-Asn]] (Lauroyl-[dS][Orn][dS][dY][dN]GNSN; lactam 2-C)
